Assays:
[1] = system: C57BL/6 mice with MI induced by permanent coronary artery ligation; experiment: Flow cytometry of myeloid cells and BrdU incorporation on day 2 post-MI; assay type: in vivo, mouse
Procedure: (§1) Immune cells from blood, spleen, heart and bone-marrow were collected at 2 or 7 days post-MI, and analysed by flow-cytometry. Mice were anesthetized by intraperitoneal injection of a mixture of xylazine (10 mg/kg) and ketamine (100 mg/kg). After 10 minutes, blood was collected by cardiac punction. Thereafter, the spleen was removed and the heart was perfused with 5 ml ice-cold PBS. Perfused hearts were excised and collected into tubes with PBS and kept on ice. Femurs and tibias from each mouse were used to obtain whole bone marrow for analysis. Blood was stained with fluorochrome-labelled antibodies against mouse monocyte and neutrophil markers diluted in MACS buffer (PBS, 10% FCS and 0.5% BSA), followed by treatment with erythrocyte lysis buffer, washing and analysis. Spleens were mashed trough a cell strainer in ice-cold PBS. Hearts were cut into small pieces and placed into tubes containing 2.5 ml digestion cocktail (Collagenase I, 450 U/ml; Collagenase XI, 125 U/ml; DNAase I, 60 U/ml; Hyaluronidase type 1-5, 60 U/ml diluted in PBS containing Ca and Mg) incubated for 1 h at 37° C. with shaking at 220 rpm. Bone marrow was flushed from femur and tibia using ice-cold PBS. Cell suspensions from spleen, heart and bone marrow were filtered through a 40 um cell strainer (BD), treated with erythrocyte lysis buffer, washed and stained. For intracellular staining, cells were fixed, permeabilized and stained. Cell populations were analyzed by flow cytometry in a Gallios Flow Cytometer (Backman Coulter), and the results were analyzed using FlowJo (FlowJo®, LLC; Tree Star). The following anti-mouse antibodies were used for the flow cytometric analysis: anti-CD45 (30-F11), anti-CD11b (M1/70), anti-Ly6C (HK1.4), anti-CD115 (AFS98), anti-Ly6G (1A8), anti-F4/80 (BM8), anti-CCR2 (475301), anti-Ter119 (TER119), anti-Gr1 (RB6-8C5), anti-CD45R/B220 (RA3-6B2), anti-CD3ξ (145-2C11), anti-NK1.1 (PK136), anti-Ly6A/E (Sca-1) (E13-1617), anti-CD117 (c-kit) (2B8), anti-CD48 (HM48.1), anti-CD150/SLAM (TC15-12F12.2), anti-CD16/32 (93), anti-CD34 (MEC14.7) (all from BioLegend, San Diego, Calif., USA); anti-MerTK (DSSMMER) and anti-Nur77 (12.14) (eBioscience).
Mice were injected intraperitoneally with 1 mg BrdU 24 hours prior to organ harvest. Intracellular BrdU staining was performed in hematopoietic stem cells collected from the bone marrow using BrdU flow kits (BD Pharmigen™), according to the manufacturer instructions. BrdU expression was analysed by flow cytometry.
Neutrophilia and monocytosis, elevated circulating numbers of neutrophils and monocytes, have been associated with an adverse prognosis in MI patients. We studied the effects of S100A9 blockade on myeloid cell populations in blood, heart, and myeloid organs on day 2 post-MI, at the peak of the acute inflammatory period. The gating strategy is described in FIG. 8.

[2] = system: C57BL/6 mice with induced MI; experiment: Flow cytometry of myeloid cells and reparatory macrophages on day 7 post-MI; assay type: in vivo, mouse; conditions: for Intra-myocardial counts of reparatory macrophages vs PBS-treated MI controls: hearts collected 7 days post-MI
Procedure: as §1
MI induction and other procedures were carried out as outlined in Example 2. For long-term experiments of up to 21 days, a daily dose of 30 mg/Kg ABR-238901 was diluted in PBS and administered by daily i.p. injections for the first 3 days post-MI until the mice recovered and started to drink normally, and thereafter p.o. ad-libitum in meglumine buffer (FIG. 4A). Adequate treatment dosage was ensured by closely monitoring daily fluid intake.
In an attempt to explain these intriguing results, we assessed the effects of the extended treatment on the presence of myeloid cells in blood, spleen, bone marrow and myocardium, with particular emphasis on cellular populations involved in myocardial repair. The cellular infiltration was analysed by flow cytometry on day 7, at the peak of the reparatory post-MI period. […] Reparatory macrophages in the ischemic myocardium have previously been defined as CD11b^+F4/80^+Ly6C^lo cells. […] In order to investigate the possible mechanisms leading to impaired cardiac function in mice receiving long-term S100A9 blockade, we examined the presence and function of Ly6C^loMerTK^hi macrophages in the myocardium at 7 days post-MI. We found an approximately 50% reduction of the number of reparatory macrophages in hearts of mice receiving ABR-238901 compared to controls (FIG. 40). […] In order to test the functional importance of these findings, we used α-MHC-mCherry mice expressing cardiac-specific red fluorescent Cherry protein under the mouse a-myosin heavy-chain promoter.
Reparatory macrophage numbers were analysed in hearts collected at 7 days post-MI from mice with induced MI treated with ABR-238901 for 3 or 7 days.

[3] = system: Nur77 response elements NBRE and NurRE in RAW264.7 macrophages; experiment: Nur77 activity luciferase reporter assay in RAW264.7 macrophages stimulated with S100A9; assay type: cell-based, mouse; conditions: S100A9 20 μg/mL, ABR-238901 100 μM, 16 hours
Procedure: Low-passage RAW264.7 mouse macrophages (ATCC #TIB-71) were seeded at 125.000 cells/mL in DMEM medium containing 2 mM L-glutamine (Gibco), 10% Fetal Calf Serum (Gibco), and 1% penicillin/streptomycin (Invitrogen). The next day, cells were transfected with pXP1-NurRE-fluc or pGL2-4xNBRE-fluc firefly luciferase Nur77 reporter constructs using Lipofectamine LTX with PLUS reagent (Invitrogen) according to manufacturer's instructions. pRluc-N3, which constitutively expresses Renilla luciferase from the CMV promoter, was co-transfected as an internal control to verify transfection efficiency. Extracellular S100A9 (20 μg/mL) was incubated in the presence of 10 μM ZnCl2 (Sigma) for 15 minutes with or without 100 μM of ABR-238901, and added to the cells 4 hours after transfection. After 16 hours of stimulation, the cells were washed and firefly and Renilla luciferase activities were determined using the Dual-Luciferase Reporter Assay System and a GloMax luminescent plate reader (both Promega).

[4] = system: C57BL/6 mice with sepsis induced by bacterial lipopolysaccharide; experiment: LPS-induced sepsis: weight loss; assay type: in vivo, mouse
Procedure: General animal care, induction of sepsis and treatments were performed as described under Example 7. We included 5 mice per treatment group. After induction of sepsis, the mice were monitored for 7 days (FIG. 15A). To evaluate bodyweight, mice were weighed daily at the same time points during the course of the experiment.

[5] = treatment for 7 days, 7 days post-MI

COc1ncc(S(=O)(=O)Nc2cncc(Cl)c2O)cc1Br [ABR-238901, 5-bromo-N-(5-chloro-4-hydroxypyridin-3-yl)-6-methoxypyridine-3-sulfonamide]
Number of Ly6Chi monocytes in the bone marrow ([1]; 2 days treatment post-MI): increased | Numbers of proliferating BrdU+ Lin−Sca+Kit+CD150+CD48− hematopoietic stem cells ([1]; bone marrow, 24 h after BrdU): reduced | Numbers of macrophages in the heart ([1]; day 2 post-MI): lower | Numbers of monocytes in the bone marrow ([1]; day 2 post-MI): significantly higher | Numbers of monocytes in the spleen ([1]; day 2 post-MI): did not have a significant effect | Numbers of neutrophils in the spleen ([1]; day 2 post-MI): did not have a significant effect | Neutrophil counts in the bone marrow ([1]; day 2 post-MI, vs MI control): highly increased | Numbers of neutrophils in blood ([1]; day 2 post-MI, vs MI control): significantly lowered | Numbers of neutrophils in myocardium ([1]; day 2 post-MI, vs MI control): significantly lowered | Intra-myocardial counts of reparatory macrophages vs PBS-treated MI controls ([2]; 3 days treatment): on par with | Intra-myocardial counts of reparatory macrophages vs PBS-treated MI controls ([2]; continuous treatment for 7 days): significantly lower | Percentage of reparatory Ly6CloMerTKhi out of total CD11b+F4/80+ macrophages [2, 5]: significantly decreased | Reduction of the number of reparatory Ly6CloMerTKhi macrophages in hearts vs controls [2, 5]: approximately 50% | Cell counts in the bone marrow ([2]; treatment for 7 days, day 7): no differences | Monocytes in the spleen vs MI controls ([2]; treatment for 7 days, day 7): accumulation | Numbers of circulating monocytes ([2]; treatment for 7 days, day 7): significantly lower | Numbers of circulating neutrophils ([2]; treatment for 7 days, day 7): significantly lower | Numbers of neutrophils in the spleen ([2]; treatment for 7 days, day 7): not significantly affected | Presence of monocytes in the heart ([2]; treatment for 7 days, day 7): potently reduced | Presence of total CD11b+F4/80+ macrophages in the heart ([2]; treatment for 7 days, day 7): potently reduced | S100A9-induced increase of Nur77 activity (NBRE and NurRE luciferase reporters) [3]: inhibited | Decrease in body weight ([4]; day 1): 5.2% | Decrease in body weight ([4]; day 2): 11.7% | Decrease in body weight ([4]; day 3): 8.8% | Decrease in body weight ([4]; day 4): 4%

Reference: US20220378763A1, “COMPOUND FOR TREATMENT OF ACUTE INFLAMMATION IN THE MYOCARDIUM” (CALPROTECT AB, priority 2019, published 2022)
